According to US11466010B2, “Toll-like receptor 8 (TLR8) specific antagonists and methods of making and uses thereof” (The Regents of the University of Colorado, a body corporate, priority 2017, dated 2022):

How the values were obtained:
[1] = test system: TNF-α production in PBMCs from RA patients; experiment: TNF-α level in PBMCs harvested from RA patients; format: cell-based, human; conditions: PBMCs from RA patients and one AOSD patient; dose-dependent
[2] = test system: TNF-α production in PBMCs from an AOSD patient; experiment: TNF-α level in PBMCs harvested from an AOSD patient; format: cell-based, human
Description: But there is a lack of appropriate rodent models because TLR8 is not functional in either mice or rats. Therefore, the TLR8 inhibitors of this disclosure were tested in human specimens harvested from patients with osteoarthritis (OA), rheumatoid arthritis (RA), and adult onset-Still's disease (AOSD). It is well established that TNF-α and IL-1β are key cytokines in the process of chronic joint inflammation in cartilage. Therefore, synovial cells were isolated from synovial tissue of patients who underwent joint replacement surgery due to severe OA. Previous studies have indicated these pathological tissues express both TLR7 and TLR8 with elevated production of various cytokines, contributing to extensive articular destruction and functional decline.

[3] = test system: TLR8 downstream proteins (p65, p-IRAK4, TRAF3, TRIF, IRF3); experiment: Immunoblotting of TLR downstream signaling proteins in THP-1 cells treated with R848; format: cell-based, human
Description: Immunoblotting: THP-1 cells were seeded in 6-well plates with a density of 2×10^6 cells/well in RPMI 1640 medium supplemented with 10% FBS, 100 U/mL penicillin, 100 μg/mL streptomycin (PenStrep), 2 mM L-glutamine, and 0.05 mM 2-mercaptoethanol. THP-1 cells were treated with phorbol-12-myristate-13-acetate (PMA) (100 ng/mL) and incubated in humidified incubators containing 5% CO2 at 37° C. for 24 h. […] After incubation of 2 h, THP-1 cells were collected, nuclear protein fraction was extracted using NE-PER Nuclear and Cytoplasmic Extraction kit (Thermo Fisher Scientific). BCA assay was then used to determine protein concentration. Protein samples were loaded and run in 10% Tris-glycine SDS-PAGE, and then transferred onto a nitro-cellulose membrane (BioRad) using electroblotting. P65 (CST; 8242) (1:1000) was then used as primary antibody, and peroxidase-conjugated AffiniPure Goat Anti-Rabbit IgG (H+L) antibody (Jackson Immuno Research; 111-035-144) (1:10000) as secondary antibody, then blots were visualized using Thermo SuperSignal West Pico kit (Thermo Fisher Scientific). Lamin A/C (CST; 2032) were used as internal controls for nuclear fractions.
Next, the inventors carried out on-target validation for CU-CPT9a. […] By contrast, the expression of TRIF and IRF3 (cytoplasmic and nuclear) were only responsive to TLR4 and TLR3, independent of TLR8.

TLR7 = molecular target: T1, TLR7 (Homo sapiens, UniProt Q9NYK1); experiment: SEAP assay in HEK-Blue TLR7 cells activated by R848; format: cell-based; conditions: below approx. micromolar concentration
T1 construct: host or cells: HEK-Blue TLR7 cells
T1 sequence (Q9NYK1 27-1049): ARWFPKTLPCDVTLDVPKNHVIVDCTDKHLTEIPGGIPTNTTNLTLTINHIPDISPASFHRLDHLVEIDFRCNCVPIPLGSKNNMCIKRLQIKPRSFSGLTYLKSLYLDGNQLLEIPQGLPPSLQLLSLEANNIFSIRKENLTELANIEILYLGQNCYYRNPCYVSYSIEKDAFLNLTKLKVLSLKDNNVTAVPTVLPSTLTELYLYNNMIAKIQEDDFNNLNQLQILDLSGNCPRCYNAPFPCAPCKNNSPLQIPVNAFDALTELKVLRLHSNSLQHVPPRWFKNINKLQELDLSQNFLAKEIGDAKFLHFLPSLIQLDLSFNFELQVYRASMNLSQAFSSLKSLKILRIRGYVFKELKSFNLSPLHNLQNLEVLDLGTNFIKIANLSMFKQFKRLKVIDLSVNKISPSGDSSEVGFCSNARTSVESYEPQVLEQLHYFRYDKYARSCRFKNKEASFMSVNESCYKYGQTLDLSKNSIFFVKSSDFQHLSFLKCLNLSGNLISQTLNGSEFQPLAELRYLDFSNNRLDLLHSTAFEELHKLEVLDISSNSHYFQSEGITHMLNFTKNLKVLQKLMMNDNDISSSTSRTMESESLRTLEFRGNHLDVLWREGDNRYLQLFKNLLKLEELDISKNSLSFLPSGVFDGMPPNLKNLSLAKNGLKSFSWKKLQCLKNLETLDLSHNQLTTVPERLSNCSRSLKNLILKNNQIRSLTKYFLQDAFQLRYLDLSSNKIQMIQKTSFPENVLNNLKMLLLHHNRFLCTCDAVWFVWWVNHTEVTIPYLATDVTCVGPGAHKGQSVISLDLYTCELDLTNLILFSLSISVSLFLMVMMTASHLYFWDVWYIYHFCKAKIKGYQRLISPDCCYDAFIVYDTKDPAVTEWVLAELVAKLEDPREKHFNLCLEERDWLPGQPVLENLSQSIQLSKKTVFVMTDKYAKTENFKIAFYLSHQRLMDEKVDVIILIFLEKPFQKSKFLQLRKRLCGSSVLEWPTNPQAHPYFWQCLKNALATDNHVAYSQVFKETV
Description: TLR selectivity assay: The selectivity of sample compound was tested using SEAP reporter assay in HEK-Blue overexpressing various TLRs. Plates were set up in same manner as described in SEAP assay above.

| effect on TLR7 (TLR7) | Compound | TNF-α level in patient PBMCs [1] | TNF-α level in PBMCs from an AOSD patient [2] | nuclear NF-κB ([3]; 500 nM) | R848-induced elevation of downstream protein levels (p65, p-IRAK4, TRAF3) ([3]; dose-dependent, 0, 5, 50, 500 nM, 2 h) |
| --- | --- | --- | --- | --- | --- |
| not affected | COc1ccc2c(-c3ccc(O)c(C)c3)ccnc2c1 [Compound 11a, 2-Methyl-4-(7-methoxyl-4-quinolinyl)-phenol] | significantly suppressed | dose-dependent suppression | significant reduction | reversed |
| not affected | Cc1cc(-c2ccnc3cc(O)ccc23)ccc1O [Compound 11b, 2-Methyl-4-(7-hydroxyl-4-quinolinyl)-phenol] |  |  |  |  |
